From US8802597B2, “Herbicidal pyrimidines” (E I du Pont de Nemours and Company, priority 2003, dated 2014)

What was measured:
Assay type in all cases: in vivo
[1] = system: yellow nutsedge (Cyperus esculentus); test: Test C pre/postemergence; details: Postemergence
How it was run: (§1)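 Injury scored visually 12–14 days after application on 0–100 scale (100 = complete control), relative to controls. Compounds, formulated with surfactant in non-phytotoxic solvent, applied to soil at planting (pre) or to 1- to 4-leaf plants 2–18 cm tall (post) in greenhouse.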

[2] = system: velvetleaf (Abutilon theophrasti); test: Test C pre/postemergence; details: Postemergence
How it was run: as §1

[3] = system: early watergrass (Echinochloa oryzoides); test: Test E flooded paddy water application; details: Flood, 21 days, scale 0 to 100 (0 no effect, 100 complete control)
How it was run: (§2)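 Weeds sown in sterilized Tama silt loam (2.6% organic matter), greenhouse 29.5/26.7° C, 16-h photoperiod; at 2.0–2.5-leaf stage pots flooded to 3 cm and compound added to paddy water. Visual rating vs untreated controls after 21 days, 0 (no effect) to 100 (complete control).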

[4] = system: smallflower umbrella sedge (Cyperus difformis); test: Test E flooded paddy water application; details: Flood, 21 days, scale 0 to 100 (0 no effect, 100 complete control)
How it was run: as §2

[5] = system: junglerice (Echinochloa colona); test: Test E flooded paddy water application; details: Flood, 21 days, scale 0 to 100 (0 no effect, 100 complete control)
How it was run: as §2

[6] = system: transplanted rice seedlings (Oryza sativa cv. ‘Japonica-M202’); test: Test E flooded paddy water application; details: Flood, 21 days, scale 0 to 100 (0 no effect, 100 complete control)
How it was run: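 Response scored visually on a 0–100 scale (100 = complete control) at 21 days against untreated pots. Treatment was into paddy water 3 cm deep over silt loam, with plants at the 2.0–2.5-leaf stage, grown under 16-h light at 29.5/26.7 °C day/night.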

[7] = system: water seeded rice seedlings (Oryza sativa cv. ‘Japonica-M202’); test: Test E flooded paddy water application; details: Flood, 21 days, scale 0 to 100 (0 no effect, 100 complete control)
How it was run: as §2

[8] = system: bearded (brdd.) sprangletop (Leptochloa fusca ssp. fascicularis); test: Test E flooded paddy water application; details: Flood, 21 days, scale 0 to 100 (0 no effect, 100 complete control)
How it was run: as §2

[9] = system: ducksalad (Heteranthera limosa); test: Test E flooded paddy water application; details: Flood, 21 days, scale 0 to 100 (0 no effect, 100 complete control); for Plant response rating, Ducksalad: 16 g ai/ha
How it was run: as §2

[10] = system: barnyardgrass (Echinochloa crus-galli); test: Test E flooded paddy water application; details: Flood, 21 days, scale 0 to 100 (0 no effect, 100 complete control); for Plant response rating, Barnyardgrass: 16 g ai/ha
How it was run: as §2

[11] = system: late watergrass (Echinochloa oryzicola); test: Test E flooded paddy water application; details: Flood, 21 days, scale 0 to 100 (0 no effect, 100 complete control)
How it was run: as §2

[12] = 125 g ai/ha, scale 0 to 100 (0 no effect, 100 complete control)

CCOC(=O)c1nc(-c2ccc(I)cc2)nc(N)c1Cl [Compound 133]
75: Plant response rating (scale of 0 to 100), Nutsedge, Yellow ([1]; 31 g ai/ha) | Plant response rating (scale of 0 to 100), Nutsedge, Yellow ([1]; 62 g ai/ha)
80: Nutsedge, Yellow plant response rating [1, 12] | Plant response rating (scale of 0 to 100), Velvetleaf ([2]; 16 g ai/ha)
0: Watergrass, Early plant response rating ([3]; 64 g ai/ha) | Watergrass, Early plant response rating ([3]; 125 g ai/ha) | Watergrass, Early plant response rating ([3]; 250 g ai/ha) | Plant response rating, Watergrass, Early ([3]; 16 g ai/ha) | Plant response rating, Watergrass, Early ([3]; 32 g ai/ha) | Plant response rating, Sedge, Umbrella ([4]; 16 g ai/ha) | Plant response rating, Sedge, Umbrella ([4]; 32 g ai/ha) | Junglerice plant response rating ([5]; 64 g ai/ha) | Junglerice plant response rating ([5]; 125 g ai/ha) | Junglerice plant response rating ([5]; 250 g ai/ha) | Plant response rating, Junglerice ([5]; 16 g ai/ha) | Plant response rating, Junglerice ([5]; 32 g ai/ha) | Rice, Transplanted plant response rating ([6]; 64 g ai/ha) | Rice, Transplanted plant response rating ([6]; 125 g ai/ha) | Rice, Transplanted plant response rating ([6]; 250 g ai/ha) | Plant response rating, Rice, Transplanted ([6]; 16 g ai/ha) | Plant response rating, Rice, Transplanted ([6]; 32 g ai/ha) | Rice, Water Seeded plant response rating ([7]; 64 g ai/ha) | Rice, Water Seeded plant response rating ([7]; 125 g ai/ha) | Plant response rating, Rice, Water Seeded ([7]; 16 g ai/ha) | Plant response rating, Rice, Water Seeded ([7]; 32 g ai/ha) | Sprangletop, Brdd. plant response rating ([8]; 64 g ai/ha) | Sprangletop, Brdd. plant response rating ([8]; 125 g ai/ha) | Sprangletop, Brdd. plant response rating ([8]; 250 g ai/ha) | Plant response rating, Sprangletop, Brdd. ([8]; 16 g ai/ha) | Plant response rating, Sprangletop, Brdd. ([8]; 32 g ai/ha) | Barnyardgrass plant response rating ([10]; 32 g ai/ha) | Barnyardgrass plant response rating ([10]; 64 g ai/ha) | Barnyardgrass plant response rating ([10]; 125 g ai/ha) | Barnyardgrass plant response rating ([10]; 250 g ai/ha) | Plant response rating, Barnyardgrass [10] | Watergrass, Late plant response rating ([11]; 64 g ai/ha) | Watergrass, Late plant response rating ([11]; 125 g ai/ha) | Watergrass, Late plant response rating ([11]; 250 g ai/ha) | Plant response rating, Watergrass, Late ([11]; 16 g ai/ha) | Plant response rating, Watergrass, Late ([11]; 32 g ai/ha)
85: Plant response rating (scale of 0 to 100), Velvetleaf ([2]; 31 g ai/ha) | Plant response rating (scale of 0 to 100), Velvetleaf ([2]; 62 g ai/ha)
95: Velvetleaf plant response rating [2, 12] | Sedge, Umbrella plant response rating ([4]; 64 g ai/ha)
100: Sedge, Umbrella plant response rating ([4]; 125 g ai/ha) | Sedge, Umbrella plant response rating ([4]; 250 g ai/ha) | Ducksalad plant response rating ([9]; 32 g ai/ha) | Ducksalad plant response rating ([9]; 64 g ai/ha) | Ducksalad plant response rating ([9]; 125 g ai/ha) | Ducksalad plant response rating ([9]; 250 g ai/ha) | Plant response rating, Ducksalad [9]
60: Plant response rating (scale of 0 to 100), Nutsedge, Yellow ([1]; 16 g ai/ha)
35: Rice, Water Seeded plant response rating ([7]; 250 g ai/ha)

COC(=O)c1nc(-c2ccc(C(F)(F)F)cc2)nc(N)c1Cl [Compound 44]
10: Barnyardgrass plant response rating ([10]; 500 g ai/ha)
0: Watergrass, Early plant response rating ([3]; 32 g ai/ha) | Watergrass, Early plant response rating ([3]; 64 g ai/ha) | Watergrass, Early plant response rating ([3]; 125 g ai/ha) | Watergrass, Early plant response rating ([3]; 250 g ai/ha) | Watergrass, Early plant response rating ([3]; 500 g ai/ha) | Junglerice plant response rating ([5]; 32 g ai/ha) | Junglerice plant response rating ([5]; 64 g ai/ha) | Junglerice plant response rating ([5]; 125 g ai/ha) | Rice, Transplanted plant response rating ([6]; 32 g ai/ha) | Rice, Transplanted plant response rating ([6]; 64 g ai/ha) | Rice, Transplanted plant response rating ([6]; 125 g ai/ha) | Rice, Transplanted plant response rating ([6]; 250 g ai/ha) | Rice, Transplanted plant response rating ([6]; 500 g ai/ha) | Rice, Water Seeded plant response rating ([7]; 32 g ai/ha) | Rice, Water Seeded plant response rating ([7]; 64 g ai/ha) | Rice, Water Seeded plant response rating ([7]; 125 g ai/ha) | Rice, Water Seeded plant response rating ([7]; 250 g ai/ha) | Barnyardgrass plant response rating ([10]; 32 g ai/ha) | Barnyardgrass plant response rating ([10]; 64 g ai/ha) | Barnyardgrass plant response rating ([10]; 125 g ai/ha) | Barnyardgrass plant response rating ([10]; 250 g ai/ha) | Watergrass, Late plant response rating ([11]; 32 g ai/ha) | Watergrass, Late plant response rating ([11]; 64 g ai/ha) | Watergrass, Late plant response rating ([11]; 125 g ai/ha) | Watergrass, Late plant response rating ([11]; 250 g ai/ha)
30: Sprangletop, Brdd. plant response rating ([8]; 64 g ai/ha) | Sprangletop, Brdd. plant response rating ([8]; 125 g ai/ha)
95: Sprangletop, Brdd. plant response rating ([8]; 500 g ai/ha)
20: Sedge, Umbrella plant response rating ([4]; 32 g ai/ha) | Junglerice plant response rating ([5]; 250 g ai/ha) | Junglerice plant response rating ([5]; 500 g ai/ha) | Rice, Water Seeded plant response rating ([7]; 500 g ai/ha) | Sprangletop, Brdd. plant response rating ([8]; 32 g ai/ha) | Watergrass, Late plant response rating ([11]; 500 g ai/ha)
90: Sedge, Umbrella plant response rating ([4]; 64 g ai/ha) | Sedge, Umbrella plant response rating ([4]; 125 g ai/ha)
50: Sprangletop, Brdd. plant response rating ([8]; 250 g ai/ha)
100: Sedge, Umbrella plant response rating ([4]; 250 g ai/ha) | Sedge, Umbrella plant response rating ([4]; 500 g ai/ha) | Ducksalad plant response rating ([9]; 32 g ai/ha) | Ducksalad plant response rating ([9]; 64 g ai/ha) | Ducksalad plant response rating ([9]; 125 g ai/ha) | Ducksalad plant response rating ([9]; 250 g ai/ha) | Ducksalad plant response rating ([9]; 500 g ai/ha)

COC(=O)c1nc(-c2ccc(Br)cc2)nc(N)c1Cl [Compound 96, methyl 6-amino-2-(4-bromophenyl)-5-chloro-4-pyrimidinecarboxylate]
10: Rice, Transplanted plant response rating ([6]; 125 g ai/ha) | Rice, Water Seeded plant response rating ([7]; 125 g ai/ha) | Rice, Water Seeded plant response rating ([7]; 250 g ai/ha)
0: Watergrass, Early plant response rating ([3]; 32 g ai/ha) | Watergrass, Early plant response rating ([3]; 64 g ai/ha) | Watergrass, Early plant response rating ([3]; 125 g ai/ha) | Watergrass, Early plant response rating ([3]; 250 g ai/ha) | Plant response rating, Watergrass, Early ([3]; 16 g ai/ha) | Junglerice plant response rating ([5]; 32 g ai/ha) | Junglerice plant response rating ([5]; 64 g ai/ha) | Junglerice plant response rating ([5]; 125 g ai/ha) | Junglerice plant response rating ([5]; 250 g ai/ha) | Plant response rating, Junglerice ([5]; 16 g ai/ha) | Rice, Transplanted plant response rating ([6]; 32 g ai/ha) | Rice, Transplanted plant response rating ([6]; 64 g ai/ha) | Plant response rating, Rice, Transplanted ([6]; 16 g ai/ha) | Rice, Water Seeded plant response rating ([7]; 32 g ai/ha) | Rice, Water Seeded plant response rating ([7]; 64 g ai/ha) | Plant response rating, Rice, Water Seeded ([7]; 16 g ai/ha) | Sprangletop, Brdd. plant response rating ([8]; 32 g ai/ha) | Sprangletop, Brdd. plant response rating ([8]; 64 g ai/ha) | Sprangletop, Brdd. plant response rating ([8]; 125 g ai/ha) | Sprangletop, Brdd. plant response rating ([8]; 250 g ai/ha) | Plant response rating, Sprangletop, Brdd. ([8]; 16 g ai/ha) | Barnyardgrass plant response rating ([10]; 32 g ai/ha) | Barnyardgrass plant response rating ([10]; 64 g ai/ha) | Barnyardgrass plant response rating ([10]; 125 g ai/ha) | Barnyardgrass plant response rating ([10]; 250 g ai/ha) | Plant response rating, Barnyardgrass [10] | Watergrass, Late plant response rating ([11]; 32 g ai/ha) | Watergrass, Late plant response rating ([11]; 64 g ai/ha) | Watergrass, Late plant response rating ([11]; 125 g ai/ha) | Watergrass, Late plant response rating ([11]; 250 g ai/ha) | Plant response rating, Watergrass, Late ([11]; 16 g ai/ha)
100: Sedge, Umbrella plant response rating ([4]; 32 g ai/ha) | Sedge, Umbrella plant response rating ([4]; 64 g ai/ha) | Sedge, Umbrella plant response rating ([4]; 125 g ai/ha) | Sedge, Umbrella plant response rating ([4]; 250 g ai/ha) | Plant response rating, Sedge, Umbrella ([4]; 16 g ai/ha) | Ducksalad plant response rating ([9]; 32 g ai/ha) | Ducksalad plant response rating ([9]; 64 g ai/ha) | Ducksalad plant response rating ([9]; 125 g ai/ha) | Ducksalad plant response rating ([9]; 250 g ai/ha) | Plant response rating, Ducksalad [9]
20: Rice, Transplanted plant response rating ([6]; 250 g ai/ha)
